From paper PMC10326263 (Acta Pharmaceutica Sinica. B, 2023) come the findings set out here.

Where only a bound is given, the exact number is not on record here.

Data set [1] in a line: Cytotoxicity in mock-infected MT-4 cells, MTT method. The following applies: human, mock-infected MT-4 cells, CC50, mock-infected MT-4 cells. Format: cell-based.
For data set [2], the system named is HIV-1 mutant strain L100I. The experiment in a line: microbe, parasite or virus in culture. Format: cell-based. The following applies: Human immunodeficiency virus 1, MT4, read-out: EC50 L100I.
Data set [3] has as its system HIV-1 mutant strain K103N. The experiment in a line: microbe, parasite or virus in culture. The following applies: Human immunodeficiency virus 1, MT4, read-out: EC50 K103N. Format: cell-based.
Data set [4] relates to HIV-1 mutant strain Y181C. Description: microbe, parasite or virus in culture. Format: cell-based. The following applies: Human immunodeficiency virus 1, MT4, read-out: EC50 Y181C.
Data set [5] relates to HIV-1 mutant strain Y188L. The experiment in a line: microbe, parasite or virus in culture. It is filed as cell-based. The following applies: Human immunodeficiency virus 1, MT4, read-out: EC50 Y188L.
Data set [6] deals with HIV-1 mutant strain E138K. Description: microbe, parasite or virus in culture. It is filed as cell-based. The following applies: Human immunodeficiency virus 1, MT4, read-out: EC50 E138K.
Data set [7] concerns HIV-1 mutant strain F227L + V106A. Description: microbe, parasite or virus in culture. It is filed as cell-based. The following applies: Human immunodeficiency virus 1, MT4, read-out: EC50 F227L + V106A.
In data set [8] the test system is HIV-1 mutant strain RES056 (K103N + Y181C). The experiment in a line: microbe, parasite or virus in culture. The following applies: Human immunodeficiency virus 1, MT4, read-out: EC50 RES056. It is filed as cell-based.
The next data set has as its system HIV-1 WT strain (IIIB). Description: Anti-HIV activity against WT HIV-1. The following applies: WT HIV-1 IIIB.

Take `Cc1cc(C)cc(S(=O)(=O)c2c(C(=O)NCCCCNS(=O)(=O)c3ccc(Cl)cc3)[nH]c3ccc(Cl)cc23)c1` [R7L4, 5-Chloro-3-((3,5-dimethylphenyl)sulfonyl)-N-(4-((4-chlorophenyl)sulfonamido)butyl)-1H-indole-2-carboxamide]: it took 89300 ± 17800 nM to reach half-maximal cytotoxicity in [1] (CC50 at 5 days). The concentration giving a half-maximal response (EC50) in data set [2] was 74 ± 21 nM; in [3] it was 130 ± 48 nM; in [4], 180 ± 16 nM; in data set [5], 1530 ± 720 nM; in data set [6] it was 51 ± 18 nM; in data set [7], 260 nM. Moreover, the 50% effective concentration (EC50) in data set [8] is greater than 89300 nM. In addition, the “SI IIIB (CC50/EC50 ratio)” value in the data set with HIV-1 WT strain (IIIB) is given as 10,389.
For the compound `Cc1cc(C)cc(S(=O)(=O)c2c(C(=O)NCCCCCNS(=O)(=O)c3ccc(Cl)cc3)[nH]c3ccc(Cl)cc23)c1` [R7L5, 5-Chloro-3-((3,5-dimethylphenyl)sulfonyl)-N-(5-((4-chlorophenyl)sulfonamido)pentyl)-1H-indole-2-carboxamide], the CC50 at 5 days in data set [1] was 115000 ± 8890 nM. The 50% effective concentration (EC50) in data set [2] came to 61 ± 3.2 nM; in data set [3], 430 ± 140 nM; in [4], 190 nM; in data set [5], 3140 ± 950 nM; in data set [6] it was 52 ± 9 nM; in data set [7], 370 ± 110 nM. Further, the EC50 in data set [8] was greater than 115000 nM. The “SI IIIB (CC50/EC50 ratio)” value in the data set with HIV-1 WT strain (IIIB) was 11,132.
As for `Cc1cc(C)cc(S(=O)(=O)c2c(C(=O)NCCNS(=O)(=O)c3cccs3)[nH]c3ccc(Cl)cc23)c1` [R8L2, 5-Chloro-3-((3,5-dimethylphenyl)sulfonyl)-N-(2-(thiophene-2-sulfonamido)ethyl)-1H-indole-2-carboxamide], in data set [1], the half-maximal cytotoxic concentration (CC50) at 5 days turned out to be 161000 ± 50300 nM. In addition, the 50% effective concentration (EC50) in data set [2] worked out at 800 ± 94 nM; in data set [3] it was 1180 ± 91 nM; in data set [4] it was 1000 ± 91 nM; in data set [5], 6240 ± 650 nM; in data set [6], 1200 ± 18 nM; in data set [7], 1810 ± 180 nM. For the same compound, the EC50 in data set [8] stood at 4630 ± 1540 nM. Moreover, the “SI IIIB (CC50/EC50 ratio)” value in the data set with HIV-1 WT strain (IIIB) is recorded as 1558.
Compound `Cc1cc(C)cc(S(=O)(=O)c2c(C(=O)NCCCNS(=O)(=O)c3cccs3)[nH]c3ccc(Cl)cc23)c1` [R8L3, 5-Chloro-3-((3,5-dimethylphenyl)sulfonyl)-N-(3-(thiophene-2-sulfonamido)propyl)-1H-indole-2-carboxamide] displayed a 50% cytotoxic concentration (CC50) at 5 days in data set [1] of 121000 ± 33400 nM. Also, the half-maximal effective concentration (EC50) in data set [2] was 500 ± 140 nM; in data set [3] it was 1030 ± 190 nM; in data set [4], 1060 ± 18 nM; in data set [5], 3540 ± 340 nM; in [6], 280 ± 18 nM; in data set [7] it was 1650 ± 270 nM. Moreover, the EC50 in data set [8] was 5380 ± 1290 nM. In addition, the “SI IIIB (CC50/EC50 ratio)” value with HIV-1 WT strain (IIIB) amounted to 2105.
The compound `Cc1cc(C)cc(S(=O)(=O)c2c(C(=O)NCCCCNS(=O)(=O)c3cccs3)[nH]c3ccc(Cl)cc23)c1` [R8L4, 5-Chloro-3-((3,5-dimethylphenyl)sulfonyl)-N-(4-(thiophene-2-sulfonamido)butyl)-1H-indole-2-carboxamide] displayed a CC50 at 5 days in data set [1] of 86500 ± 11800 nM. In addition, the EC50 came to 130 ± 59 nM in data set [2]; 470 ± 69 nM in [3]; 540 nM in data set [4]; 1050 ± 35 nM in data set [5]; 190 ± 17 nM in [6]; 360 ± 35 nM in data set [7]. The half-maximal effective concentration (EC50) in data set [8] is greater than 86500 nM. Besides, the “SI IIIB (CC50/EC50 ratio)” value with HIV-1 WT strain (IIIB) worked out at 1953.
For the compound `Cc1cc(C)cc(S(=O)(=O)c2c(C(=O)NCCCCCNS(=O)(=O)c3cccs3)[nH]c3ccc(Cl)cc23)c1` [R8L5, 5-Chloro-3-((3,5-dimethylphenyl)sulfonyl)-N-(5-(thiophene-2-sulfonamido)pentyl)-1H-indole-2-carboxamide], the CC50 at 5 days in data set [1] is 35400 ± 1050 nM. Further, the EC50 in data set [2] came to 170 ± 17 nM; in data set [3], 1230 ± 220 nM; in data set [4], 730 ± 340 nM; in data set [5], 2710 ± 130 nM; in data set [6] it was 200 ± 51 nM; in [7], 1260 ± 340 nM. In addition, in data set [8], the 50% effective concentration (EC50) is greater than 43300 nM. In the data set with HIV-1 WT strain (IIIB), the “SI IIIB (CC50/EC50 ratio)” value came to 526.
Compound `Cc1cc(C)cc(S(=O)(=O)c2c(C(=O)NCCNS(=O)(=O)c3ccccc3)[nH]c3ccc(Cl)cc23)c1` [R9L2, 5-Chloro-3-((3,5-dimethylphenyl)sulfonyl)-N-(2-(phenylsulfonamido)ethyl)-1H-indole-2-carboxamide] registered a CC50 at 5 days in data set [1] of 185000 ± 8310 nM. Besides, the EC50 in data set [2] was 260 ± 110 nM; in data set [3] it was 240 ± 37 nM; in data set [4], 260 ± 73 nM; in [5], 2810 ± 290 nM; in [6] it was 220 ± 73 nM; in data set [7] it was 1120 ± 350 nM. In data set [8], the half-maximal effective concentration (EC50) came out at 3140 ± 110 nM. The “SI IIIB (CC50/EC50 ratio)” value with HIV-1 WT strain (IIIB) is recorded as 13,509.
Consider `Cc1cc(C)cc(S(=O)(=O)c2c(C(=O)NCCCNS(=O)(=O)c3ccccc3)[nH]c3ccc(Cl)cc23)c1` [R9L3, 5-Chloro-3-((3,5-dimethylphenyl)sulfonyl)-N-(3-(phenylsulfonamido)propyl)-1H-indole-2-carboxamide], for which the CC50 at 5 days in data set [1] is greater than 224000 nM. In addition, the 50% effective concentration (EC50) in [2] came to 180 ± 54 nM; in [3], 320 ± 72 nM; in [4] it was 700 ± 270 nM; in data set [5], 3080 ± 250 nM; in [6], 55 ± 18 nM; in [7], 800 ± 250 nM. The EC50 in [8] is 4760 ± 800 nM. In addition, in the data set with HIV-1 WT strain (IIIB), the “SI IIIB (CC50/EC50 ratio)” value is greater than 8047.
As for `Cc1cc(C)cc(S(=O)(=O)c2c(C(=O)NCCCCNS(=O)(=O)c3ccccc3)[nH]c3ccc(Cl)cc23)c1` [R9L4, 5-Chloro-3-((3,5-dimethylphenyl)sulfonyl)-N-(4-(phenylsulfonamido)butyl)-1H-indole-2-carboxamide], in data set [1], the 50% cytotoxic concentration (CC50) at 5 days worked out at 113000 ± 26800 nM. For the same compound, the 50% effective concentration (EC50) in data set [2] was determined as 28 ± 8.7 nM; in [3], 150 ± 45 nM; in data set [4] it was 150 ± 33 nM; in data set [5], 870 ± 170 nM; in data set [6], 31 ± 7 nM; in [7] it was 280 ± 52 nM. Moreover, in data set [8], the EC50 is greater than 115000 nM. Also, in the data set with HIV-1 WT strain (IIIB), the “SI IIIB (CC50/EC50 ratio)” value is 15,106.
Take `Cc1cc(C)cc(S(=O)(=O)c2c(C(=O)NCCCCCNS(=O)(=O)c3ccccc3)[nH]c3ccc(Cl)cc23)c1` [R9L5, 5-Chloro-3-((3,5-dimethylphenyl)sulfonyl)-N-(5-(phenylsulfonamido)pentyl)-1H-indole-2-carboxamide]: in data set [1], the cytotoxic concentration (CC50) at 5 days stood at 129000 ± 6850 nM. The half-maximal effective concentration (EC50) in data set [2] was determined as 44 ± 5 nM; in [3], 340 ± 51 nM; in data set [4], 220 ± 17 nM; in data set [5] it was 1460 ± 560 nM; in data set [6], 36 ± 7 nM; in [7], 220 ± 85 nM. For the same compound, the EC50 in data set [8] is greater than 119000 nM. In the data set on HIV-1 WT strain (IIIB), the “SI IIIB (CC50/EC50 ratio)” value was determined as 8814.
As for `Cc1cc(C)cc(S(=O)(=O)c2c(C(=O)NCCNS(=O)(=O)c3cccnc3)[nH]c3ccc(Cl)cc23)c1` [R10L2, 5-Chloro-3-((3,5-dimethylphenyl)sulfonyl)-N-(2-(pyridine-3-sulfonamido)ethyl)-1H-indole-2-carboxamide], the CC50 at 5 days in [1] is 23400 ± 750 nM. The 50% effective concentration (EC50) amounted to 140 ± 46 nM in [2]; 290 ± 55 nM in [3]; 290 ± 18 nM in data set [4]; 2200 ± 400 nM in data set [5]; 120 ± 33 nM in [6]; 1480 ± 270 nM in data set [7]. Further, the EC50 in data set [8] was found to be 4600 ± 310 nM. Further, the “SI IIIB (CC50/EC50 ratio)” value in the data set on HIV-1 WT strain (IIIB) is on record as 3205.
Take `Cc1cc(C)cc(S(=O)(=O)c2c(C(=O)NCCCNS(=O)(=O)c3cccnc3)[nH]c3ccc(Cl)cc23)c1` [R10L3, 5-Chloro-3-((3,5-dimethylphenyl)sulfonyl)-N-(3-(pyridine-3-sulfonamido)propyl)-1H-indole-2-carboxamide]: the half-maximal cytotoxic concentration (CC50) at 5 days in [1] turned out to be 55100 ± 8070 nM. Also, the EC50 stood at 100 ± 32 nM in data set [2]; 200 ± 36 nM in [3]; 200 ± 18 nM in [4]; 2320 ± 110 nM in data set [5]; 43 ± 5 nM in [6]; 540 ± 270 nM in [7]. The EC50 in data set [8] turned out to be 7770 ± 2320 nM. Also, in the data set with HIV-1 WT strain (IIIB), the “SI IIIB (CC50/EC50 ratio)” value is 6950.
Consider `Cc1cc(C)cc(S(=O)(=O)c2c(C(=O)NCCCCCNS(=O)(=O)c3cccnc3)[nH]c3ccc(Cl)cc23)c1` [R10L5, 5-Chloro-3-((3,5-dimethylphenyl)sulfonyl)-N-(5-(pyridine-3-sulfonamido)pentyl)-1H-indole-2-carboxamide], for which the CC50 at 5 days in data set [1] came out at 41900 ± 2180 nM. Further, the EC50 in data set [2] is 46 ± 14 nM; in [3] it was 190 ± 34 nM; in data set [4] it was 110 ± 22 nM; in [5], 730 ± 34 nM; in [6], 29 ± 12 nM; in data set [7], 140 ± 75 nM. In [8], the EC50 came to 10600 ± 6700 nM. Moreover, in the data set with HIV-1 WT strain (IIIB), the “SI IIIB (CC50/EC50 ratio)” value was determined as 5513.
`Cc1cc(C)cc(S(=O)(=O)c2c(C(=O)NCCNS(=O)(=O)c3ccccc3F)[nH]c3ccc(Cl)cc23)c1` [R11L2, 5-Chloro-3-((3,5-dimethylphenyl)sulfonyl)-N-(2-((2-fluorophenyl)sulfonamido)ethyl)-1H-indole-2-carboxamide]: in [1], the half-maximal cytotoxic concentration (CC50) at 5 days turned out to be 199000 ± 8290 nM. For the same compound, the EC50 was 250 ± 71 nM in data set [2]; 210 ± 53 nM in data set [3]; 280 ± 36 nM in data set [4]; 2680 ± 250 nM in data set [5]; 200 ± 36 nM in data set [6]; 1230 ± 430 nM in data set [7]. In addition, the EC50 in [8] amounted to 3040 ± 210 nM. Besides, the “SI IIIB (CC50/EC50 ratio)” value in the data set on HIV-1 WT strain (IIIB) is given as 11,116.
